Data taken from ChEMBL document CHEMBL3822406, “Synthesis and evaluation of a series of 4-azaindole-containing p21-activated kinase-1 inhibitors” (Bioorg Med Chem Lett, 2016).
In brackets after ≈: the same amount, converted by molar mass.

Key:
[1] = molecular target: Serine/threonine-protein kinase PAK 1 (Homo sapiens, UniProt Q13153); experiment: Inhibition of recombinant human GST-tagged PAK1 kinase domain expressed in baculovirus expression system assessed as suppression of phosphorylation of coumarin/fluorescein-labelled FRET peptide substrate at Ser/Thr19 residues preincubated with substrate for 10 mins followed by enzyme addition measured after 60 mins by Z-Lyte assay
[2] = molecular target: Serine/threonine-protein kinase PAK 1/PAK 2/PAK 3 (Homo sapiens, UniProt O75914+Q13177+Q13153); experiment: Inhibition of PAK1/2/3 in human EBC1 cells assessed as MEK1 phosphorylation level at Serine298 residue incubated for 2 hrs by HTRF assay; type: cell-based
[3] = Cmax in nude mouse at 25 mg/kg, po; type: ADME, organism-based; design: dose 25 mg/kg, route oral; conditions: in vivo
[4] = Tmax in nude mouse at 25 mg/kg, po; type: ADME, organism-based; conditions: in vivo
[5] = Lipophilicity, logD of compound at pH 7.4; type: physicochemical; conditions: buffer
MDR1 (human) [6] = experiment: Efflux ratio of apparent permeability from basolateral to apical side over apical to basolateral side in MDCK cells expressing human MDR1; type: ADME, cell-based, Canis lupus familiaris; conditions: dog
Hepatocyte = experiment: Drug uptake in mouse hepatocytes measured at 30 secs relative to control; type: ADME, cell-based; conditions: 0.5 min
[7] = Half life in nude mouse at 2 mg/kg, iv; type: ADME, organism-based; conditions: in vivo
MDR1 (human) [8] = experiment: Apparent permeability from apical to basolateral side in MDCK cells expressing human MDR1; type: ADME, cell-based, Canis lupus familiaris; conditions: dog
[9] = Fraction unbound in mouse plasma; type: ADME, cell-free
Mus musculus = experiment: Unbound clearance in nude mouse at 2 mg/kg, iv; type: ADME, organism-based; conditions: in vivo
[10] = Apparent permeability from apical to basolateral side in MDCK cells; type: ADME, cell-based, Canis lupus familiaris; conditions: dog
[11] = Plasma clearance in nude mouse at 2 mg/kg, iv; type: ADME, organism-based
MDR1 (human) [12] = experiment: Apparent permeability from basolateral to apical side in MDCK cells expressing human MDR1; type: ADME, cell-based, Canis lupus familiaris; conditions: dog
[13] = Oral bioavailability in nude mouse at 25 mg/kg; type: ADME, organism-based; conditions: in vivo
[14] = Kinetic solubility at pH 7.4 by high throughput assay; type: physicochemical; conditions: buffer, read-out: Kinetic_solubility
[15] = Volume of distribution at steady state in nude mouse at 2 mg/kg, iv; type: ADME, organism-based; conditions: in vivo, read-out: Vdss
[16] = molecular target: Serine/threonine-protein kinase PAK 4 (Homo sapiens, UniProt O96013); experiment: Inhibition of human recombinant GST-tagged PAK4 kinase domain (295 to 591 residues) expressed in baculovirus expression system assessed as suppression of phosphorylation of coumarin/fluorescein-labelled FRET peptide substrate at Ser/Thr19 residues preincubated with substrate for 10 mins followed by enzyme addition measured after 60 mins by Z-Lyte assay
Chain of Serine/threonine-protein kinase PAK 4 (O96013 whole entry, the tested form may be a part): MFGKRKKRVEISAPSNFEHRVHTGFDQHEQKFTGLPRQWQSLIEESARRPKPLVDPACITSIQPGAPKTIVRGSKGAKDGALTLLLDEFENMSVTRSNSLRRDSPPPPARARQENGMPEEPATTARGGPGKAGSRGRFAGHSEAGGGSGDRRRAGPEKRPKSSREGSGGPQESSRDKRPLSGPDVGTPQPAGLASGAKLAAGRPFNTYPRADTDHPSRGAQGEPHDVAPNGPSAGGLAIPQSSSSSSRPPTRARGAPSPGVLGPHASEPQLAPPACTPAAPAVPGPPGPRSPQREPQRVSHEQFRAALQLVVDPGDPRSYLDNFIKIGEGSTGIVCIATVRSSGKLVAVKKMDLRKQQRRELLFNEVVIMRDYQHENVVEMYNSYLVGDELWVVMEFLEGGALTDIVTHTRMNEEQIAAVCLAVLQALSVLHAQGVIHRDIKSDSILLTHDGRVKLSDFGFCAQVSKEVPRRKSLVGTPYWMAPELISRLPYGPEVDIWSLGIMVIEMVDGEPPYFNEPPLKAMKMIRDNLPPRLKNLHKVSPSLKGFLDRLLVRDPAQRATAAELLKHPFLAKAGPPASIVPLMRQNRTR

Chain of Serine/threonine-protein kinase PAK 1 (Q13153 whole entry, the tested form may be a part): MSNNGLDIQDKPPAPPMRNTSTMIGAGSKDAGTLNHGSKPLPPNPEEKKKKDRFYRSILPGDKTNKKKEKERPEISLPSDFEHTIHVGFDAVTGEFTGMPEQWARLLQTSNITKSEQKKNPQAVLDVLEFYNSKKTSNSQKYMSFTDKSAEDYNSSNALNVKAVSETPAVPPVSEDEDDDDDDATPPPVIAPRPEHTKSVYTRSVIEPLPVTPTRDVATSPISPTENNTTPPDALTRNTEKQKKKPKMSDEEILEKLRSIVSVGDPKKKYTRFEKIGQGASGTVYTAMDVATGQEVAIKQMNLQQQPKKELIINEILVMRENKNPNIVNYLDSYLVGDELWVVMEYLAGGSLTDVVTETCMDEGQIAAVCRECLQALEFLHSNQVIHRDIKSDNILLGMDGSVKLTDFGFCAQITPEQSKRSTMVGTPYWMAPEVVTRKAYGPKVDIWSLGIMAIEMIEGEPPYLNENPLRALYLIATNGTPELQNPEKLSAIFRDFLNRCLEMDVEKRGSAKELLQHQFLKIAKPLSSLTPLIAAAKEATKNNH

CC[C@H](Nc1nccc(Nc2cc(C3CC3)[nH]n2)n1)c1ccc2[nH]ccc2n1
Ki [1]: 23 nM
IC50 [2]: 180 nM

C[C@H](Nc1nccc(Nc2cc(C3CC3)[nH]n2)n1)c1ccc2[nH]ccc2n1
Cmax [3]: 4.7 µM
Tmax [4]: 34.8 min
logD [5]: 2.7
efflux ratio (MDR1 (human) [6]): 59
fold change (FC) (Hepatocyte): 2.7
half-life [7]: 37.8 min
Papp A→B (MDR1 (human) [8]): 0.2 ×10⁻⁶ cm/s
fraction unbound [9]: 0.045
CL free (Mus musculus): 1067 mL/min/kg
Papp A→B [10]: 4.3 ×10⁻⁶ cm/s
Ki [1]: 32 nM
clearance [11]: 48 mL/min/kg
Papp B→A (MDR1 (human) [12]): 9.8 ×10⁻⁶ cm/s
bioavailability [13]: 4.8%
IC50 [2]: 51 nM
solubility kinetic [14]: 133 µM (≈ 47.9 µg/mL)
Vd [15]: 1.65 L/kg

C[C@H](Nc1nccc(Nc2cc(C3CC3)[nH]n2)n1)c1nc2cc[nH]c2cc1Cl
Ki [1]: 119 nM
IC50 [2]: 190 nM

C[C@H](Nc1nccc(Nc2cc([C@@H]3C[C@H]3F)[nH]n2)n1)c1ccc2[nH]ccc2n1
fraction unbound [9]: 0.047
Papp A→B [10]: 4.2 ×10⁻⁶ cm/s
solubility kinetic [14]: 73 µM (≈ 27.6 µg/mL)

C[C@H](Nc1nccc(Nc2cc(C3CC(F)(F)C3)[nH]n2)n1)c1ccc2[nH]ccc2n1
Ki [1]: 68 nM
IC50 [2]: 250 nM

C[C@H](Nc1nccc(Nc2cc(C3CC3)[nH]n2)n1)c1nc2cc[nH]c2cc1F
fraction unbound [9]: 0.014
Papp A→B [10]: 8.3 ×10⁻⁶ cm/s
Ki [1]: 4 nM
IC50 [2]: 57 nM
solubility kinetic [14]: 58 µM (≈ 21.9 µg/mL)

C[C@H](Nc1nccc(Nc2cc([C@H]3C[C@@H]3F)[nH]n2)n1)c1ccc2[nH]ccc2n1
Papp A→B [10]: 3.7 ×10⁻⁶ cm/s
solubility kinetic [14]: 104 µM (≈ 39.4 µg/mL)

C[C@H](Nc1nccc(Nc2cc(C3CC3)[nH]n2)n1)c1ccc2[nH]cc(Cl)c2n1
Ki [1]: 6 nM
IC50 [2]: 160 nM

O=C(O)C[C@H](O)C[C@H](O)/C=C/c1c(C2CC2)nc2ccccc2c1-c1ccc(F)cc1 [PITAVASTATIN]
fold change (FC) (Hepatocyte): 6.6

C[n+]1ccc(-c2ccccc2)cc1
fold change (FC) (Hepatocyte): 4.7

C[C@@H](Nc1nccc(Nc2cc(C3CC3)[nH]n2)n1)c1ccc2[nH]ccc2n1
IC50 [1]: 685 nM

c1cc(Nc2cc(C3CC3)[nH]n2)nc(NCc2ccc3nccn3c2)n1
Ki [1]: 360 nM

C[C@@H](c1ccc2[nH]ccc2n1)N(C)c1nccc(Nc2cc(C3CC3)[nH]n2)n1
Ki [1]: 18 nM
IC50 [2]: 240 nM

C[C@H](Nc1nccc(Nc2cc(C3CC3)[nH]n2)n1)c1ccc2[nH]ccc2c1
logD [5]: 3.7
efflux ratio (MDR1 (human) [6]): 27.7
fold change (FC) (Hepatocyte): 1.8
half-life [7]: 19.2 min
Papp A→B (MDR1 (human) [8]): 0.5 ×10⁻⁶ cm/s
fraction unbound [9]: 0.008
CL free (Mus musculus): 20000 mL/min/kg
Papp A→B [10]: 2 ×10⁻⁶ cm/s
clearance [11]: 160 mL/min/kg
Papp B→A (MDR1 (human) [12]): 14.6 ×10⁻⁶ cm/s
IC50 [2]: 120 nM
solubility kinetic [14]: 69 µM (≈ 24.8 µg/mL)
Vd [15]: 4.5 L/kg

C[C@H](Nc1nccc(Nc2cc(C3CC3)[nH]n2)n1)c1cc2cc[nH]c2cn1
fraction unbound [9]: 0.039
Papp A→B [10]: 0.9 ×10⁻⁶ cm/s
IC50 [2]: 68 nM
solubility kinetic [14]: 73 µM (≈ 26.3 µg/mL)

CCCCNC(=O)NS(=O)(=O)c1ccc(C)cc1 [TOLBUTAMIDE]
fold change (FC) (Hepatocyte): 1.4

c1cc(Nc2cc(C3CC3)[nH]n2)nc(NCc2ccc3[nH]ccc3n2)n1
Ki [16]: 505 nM
Ki [1]: 120 nM
